Measured values published in PubChem BioAssay (NCI).
Where “and” joins values, the source holds several entries; their conditions need not be identical. Equal values may be shown once.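 Cultured in 96-well plates, cells were exposed to test compound for 48 hours across five concentrations. At the GI50, growth is halved. TGI marks complete inhibition of growth.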

What was measured:
Assay in all cases: inhibition of tumour cell growth, NCI panel, 48 h; in the data active = GI50 below about 0.43 µM; inactive = the rest
[1] = system: BT-549 breast
[2] = system: HCT-116 colon
[3] = system: HS 578T breast
[4] = system: NCI-H226 lung
[5] = system: NCI-H23 lung
[6] = system: NCI-H460 lung
[7] = system: NCI-H522 lung
[8] = system: OVCAR-3 ovarian
[9] = system: OVCAR-4 ovarian
[10] = system: SF-295 CNS

COCCN(CCOC)c1nc(-c2ccccc2)nc2ccccc12
52.7 µM: TGI [7]
47.7 µM: TGI [1]
54 µM: TGI [4]
79.2 µM: TGI [6]
> 100 µM: TGI [2] | TGI [3] | TGI [8] | TGI [9] | TGI [10]
inactive: GI50 [1] 22.5 µM | GI50 [2] 24.5 µM | GI50 [3] 38.8 µM | GI50 [4] 23.6 µM | GI50 [5] 26.6 µM | GI50 [6] 20.8 µM | GI50 [7] 21.6 µM | GI50 [8] 31.3 µM | GI50 [9] 44.8 µM | GI50 [10] 30.9 µM
54.7 µM: TGI [5]

C=CCN(CC=C)C(=O)c1cc(C)nc2c1c(=O)n(-c1ccccc1)c(=O)n2CCCN1CCN(c2ccccc2OC)CC1
inactive: GI50 [1] > 50 µM | GI50 [2] > 50 µM | GI50 [3] > 50 µM | GI50 [4] > 50 µM | GI50 [5] > 50 µM | GI50 [6] > 50 µM | GI50 [7] > 50 µM | GI50 [8] > 50 µM | GI50 [9] > 50 µM | GI50 [10] > 50 µM
> 50 µM: TGI [1] | TGI [2] | TGI [3] | TGI [4] | TGI [5] | TGI [6] | TGI [7] | TGI [8] | TGI [9] | TGI [10]

Cc1cc(Br)c(NC(=O)c2c(-c3c(Cl)cccc3Cl)noc2C)c(Br)c1
> 100 µM: TGI [1] | TGI [2] | TGI [3] | TGI [4] | TGI [5] | TGI [6] | TGI [7] | TGI [8] | TGI [9] | TGI [10]
inactive: GI50 [1] > 100 µM | GI50 [2] > 100 µM | GI50 [3] 26.5 µM | GI50 [4] 82.5 µM | GI50 [5] > 100 µM | GI50 [6] > 100 µM | GI50 [7] > 100 µM | GI50 [8] > 100 µM | GI50 [9] 73.4 µM | GI50 [10] 2.15 µM

Cc1cccc(Cn2cc(CO)c3cnccc32)c1
> 100 µM: TGI [1] | TGI [2] | TGI [3] | TGI [4] | TGI [5] | TGI [6] | TGI [7] | TGI [8] | TGI [9]
inactive: GI50 [1] 35.7 µM | GI50 [2] 36.8 µM | GI50 [3] > 100 µM | GI50 [4] 32 µM | GI50 [5] 19.2 µM | GI50 [6] 57.5 µM | GI50 [7] 60.3 µM | GI50 [8] 40.1 µM | GI50 [9] 78.3 µM | GI50 [10] 12.4 µM
76.7 µM: TGI [10]

COc1ccc(/C=C2\CCC/C(=C\c3ccc(OC)c(OC)c3)C2=O)cc1OC
5.07 µM: TGI [2]
15.4 µM: TGI [7]
inactive: GI50 [1] 1.7 µM | GI50 [2] 1.14 µM | GI50 [3] 7.95 µM | GI50 [4] 21.9 µM | GI50 [5] 2.91 µM | GI50 [6] 1.61 µM | GI50 [7] 2.19 µM | GI50 [8] 2.17 µM | GI50 [9] 3.28 µM | GI50 [10] 1.4 µM
> 32.5 µM: TGI [1] | TGI [3] | TGI [4] | TGI [5] | TGI [6] | TGI [8] | TGI [9]
21.3 µM: TGI [10]

COC12C(COC(=O)NCCO)C3=C(C(=O)C(C)=C(N)C3=O)N1CC1NC12 (configuration not stated)
33.5 µM and 99.6 µM: TGI [7]
114 µM: TGI [2]
> 264 µM: TGI [3] | TGI [10]
30.7 µM and 49.4 µM: TGI [6]
inactive: GI50 [2] 35.1 µM | GI50 [4] 30.2 µM | GI50 [5] 10.3 µM | GI50 [7] 36.1 µM | GI50 [8] 56.2 µM | GI50 [9] 53.2 µM | GI50 [10] 24.3 µM
22.7 µM and 51.3 µM: TGI [5]
119 µM: TGI [9]
171 µM: TGI [1]
71 µM and 150 µM: TGI [4]
141 µM: TGI [8]

O=C(Nc1ccc(OC(F)(F)Cl)cc1)c1cnc(N2CC[C@@H](O)C2)c(-c2ccn[nH]2)c1
23.9 µM: TGI [2]
49.3 µM: TGI [3]
30 µM: TGI [4]
25.4 µM: TGI [6]
24.7 µM: TGI [1]
26 µM: TGI [10]
31.6 µM: TGI [7]
43.5 µM: TGI [9]
33.5 µM: TGI [5]
41.4 µM: TGI [8]
inactive: GI50 [1] 10.6 µM | GI50 [2] 10.8 µM | GI50 [3] 17.6 µM | GI50 [4] 11.8 µM | GI50 [5] 13.6 µM | GI50 [6] 10.1 µM | GI50 [7] 12.6 µM | GI50 [8] 15 µM | GI50 [9] 7.07 µM | GI50 [10] 10.6 µM

[O]=[V]([OH])([OH])[OH]
inactive: GI50 [1] > 100 µM | GI50 [2] > 100 µM | GI50 [3] > 100 µM | GI50 [4] > 100 µM | GI50 [5] > 100 µM | GI50 [6] > 100 µM | GI50 [7] > 100 µM | GI50 [8] > 100 µM | GI50 [9] 54.2 µM | GI50 [10] > 100 µM
> 100 µM: TGI [1] | TGI [2] | TGI [3] | TGI [4] | TGI [5] | TGI [6] | TGI [7] | TGI [8] | TGI [9] | TGI [10]
